In ChEMBL document CHEMBL3885861, “Open TG-GATES”:

Organism: Rattus norvegicus
Assay: Open TG-GATES - Regimen: Single
Format: toxicity, organism-based, Sprague-Dawley
Design: regimen Single, gender Male, age 6 weeks
Conditions: in vivo, po, route gavage; for APTT / Bas / Eos / Fbg / Hb / Ht / Lym / MCH / MCHC / MCV / Mono / Neu / PT / Plat / RBC / Ret / WBC: tissue Blood; for KIDNEY_L / KIDNEY_R / KIDNEY_TOTAL: tissue Kidney; for LIVER: tissue Liver; for A/G / ALP / ALT / AST / BUN / CRE / Ca / Cl / DBIL / GLC / IP / K / LDH / Na / PL / RALB / TBIL / TC / TG / TP / gamma-GTP: tissue Plasma
[1] = 120 mg/kg, 3 h, dose level Middle
[2] = 120 mg/kg, 6 h, dose level Middle
[3] = 120 mg/kg, 9 h, dose level Middle
[4] = 120 mg/kg, 24 h, dose level Middle
[5] = 400 mg/kg, 3 h, dose level High
[6] = 400 mg/kg, 6 h, dose level High
[7] = 400 mg/kg, 9 h, dose level High
[8] = 400 mg/kg, 24 h, dose level High

## Cc1cccc(C)c1OCC(C)N (centres undefined) [MEXILETINE]
[1]
  TERMINAL_BW: 218.1 g
  APTT: 21.8 s
  Bas: 0%
  Eos: 0.4%
  Fbg: 310.2 mg/dL
  Hb: 13.1 g/dL
  Ht: 40.6%
  Lym: 83.2%
  MCH: 20.1 pg
  MCHC: 32.2%
  MCV: 62.6 fL
  Mono: 2%
  Neu: 13.6%
  PT: 15.9 s
  Plat: 113.4 x10_4/uL
  RBC: 648.8 x10_4/ul
  Ret: 7.3%
  WBC: 96 x10_2/uL
  KIDNEY_L: 1 g
  KIDNEY_R: 1 g
  KIDNEY_TOTAL: 1.9 g
  LIVER: 10.1 g
  A/G: 1.3
  ALP: 1543.6 IU/L
  ALT: 54.4 IU/L
  AST: 78.4 IU/L
  BUN: 12.8 mg/dL
  CRE: 0.2 mg/dL
  Ca: 10.5 mg/dL
  Cl: 106.4 meq/L
  DBIL: 0 mg/dL
  GLC: 182.6 mg/dL
  IP: 9.4 mg/dL
  K: 4.4 meq/L
  LDH: 175.2 IU/L
  Na: 141.6 meq/L
  PL: 135 mg/dL
  RALB: 3.1 g/dL
  TBIL: 0.018 mg/dL
  TC: 77.2 mg/dL
  TG: 61.8 mg/dL
  TP: 5.5 g/dL
  gamma-GTP: 1.2 IU/L
[2]
  TERMINAL_BW: 209 g
  APTT: 21.2 s
  Bas: 0%
  Eos: 0.8%
  Fbg: 318.6 mg/dL
  Hb: 13.2 g/dL
  Ht: 40.5%
  Lym: 77.4%
  MCH: 20.4 pg
  MCHC: 32.6%
  MCV: 62.6 fL
  Mono: 2.4%
  Neu: 19%
  PT: 16.1 s
  Plat: 120.4 x10_4/uL
  RBC: 647 x10_4/ul
  Ret: 6.8%
  WBC: 69.3 x10_2/uL
  KIDNEY_L: 0.9 g
  KIDNEY_R: 0.9 g
  KIDNEY_TOTAL: 1.9 g
  LIVER: 9 g
  A/G: 1.2
  ALP: 1633.4 IU/L
  ALT: 43.8 IU/L
  AST: 73.4 IU/L
  BUN: 9.8 mg/dL
  CRE: 0.2 mg/dL
  Ca: 10.6 mg/dL
  Cl: 107.4 meq/L
  DBIL: 0 mg/dL
  GLC: 184.6 mg/dL
  IP: 8.6 mg/dL
  K: 4.1 meq/L
  LDH: 179.2 IU/L
  Na: 142 meq/L
  PL: 124.6 mg/dL
  RALB: 3.1 g/dL
  TBIL: 0.03 mg/dL
  TC: 68.6 mg/dL
  TG: 48.6 mg/dL
  TP: 5.7 g/dL
  gamma-GTP: 1.2 IU/L
[3]
  TERMINAL_BW: 219.2 g
  APTT: 22.9 s
  Bas: 0%
  Eos: 1%
  Fbg: 318.6 mg/dL
  Hb: 12.6 g/dL
  Ht: 39%
  Lym: 78.6%
  MCH: 20.2 pg
  MCHC: 32.3%
  MCV: 62.6 fL
  Mono: 2.4%
  Neu: 17.2%
  PT: 16.3 s
  Plat: 120 x10_4/uL
  RBC: 624 x10_4/ul
  Ret: 7.2%
  WBC: 97.2 x10_2/uL
  KIDNEY_L: 1 g
  KIDNEY_R: 1 g
  KIDNEY_TOTAL: 2 g
  LIVER: 9.5 g
  A/G: 1.2
  ALP: 1531 IU/L
  ALT: 44.6 IU/L
  AST: 71.8 IU/L
  BUN: 10.6 mg/dL
  CRE: 0.2 mg/dL
  Ca: 10.6 mg/dL
  Cl: 104.6 meq/L
  DBIL: 0 mg/dL
  GLC: 188.4 mg/dL
  IP: 9 mg/dL
  K: 4.3 meq/L
  LDH: 143.8 IU/L
  Na: 140.2 meq/L
  PL: 130.4 mg/dL
  RALB: 3 g/dL
  TBIL: 0.02 mg/dL
  TC: 74 mg/dL
  TG: 66.8 mg/dL
  TP: 5.4 g/dL
  gamma-GTP: 1.2 IU/L
[4]
  TERMINAL_BW: 231.4 g
  APTT: 19.9 s
  Bas: 0%
  Eos: 0.8%
  Fbg: 293.8 mg/dL
  Hb: 12.8 g/dL
  Ht: 39.5%
  Lym: 81%
  MCH: 20.6 pg
  MCHC: 32.3%
  MCV: 63.8 fL
  Mono: 2.4%
  Neu: 15.2%
  PT: 15.9 s
  Plat: 117.4 x10_4/uL
  RBC: 619.8 x10_4/ul
  Ret: 7.6%
  WBC: 86.1 x10_2/uL
  KIDNEY_L: 1 g
  KIDNEY_R: 1 g
  KIDNEY_TOTAL: 2 g
  LIVER: 10.8 g
  A/G: 1.3
  ALP: 1779.4 IU/L
  ALT: 50 IU/L
  AST: 75 IU/L
  BUN: 17.2 mg/dL
  CRE: 0.2 mg/dL
  Ca: 10.7 mg/dL
  Cl: 106.2 meq/L
  DBIL: 0 mg/dL
  GLC: 188.6 mg/dL
  IP: 7.6 mg/dL
  K: 4.2 meq/L
  LDH: 205 IU/L
  Na: 141.4 meq/L
  PL: 148.4 mg/dL
  RALB: 3.1 g/dL
  TBIL: 0.008 mg/dL
  TC: 74.2 mg/dL
  TG: 150.8 mg/dL
  TP: 5.6 g/dL
  gamma-GTP: 1.6 IU/L
[5]
  TERMINAL_BW: 221.2 g
  APTT: 21.7 s
  Bas: 0%
  Eos: 1%
  Fbg: 292.2 mg/dL
  Hb: 12.9 g/dL
  Ht: 39.9%
  Lym: 75.8%
  MCH: 20.5 pg
  MCHC: 32.4%
  MCV: 63.2 fL
  Mono: 2.4%
  Neu: 20.6%
  PT: 16.5 s
  Plat: 108.6 x10_4/uL
  RBC: 632.4 x10_4/ul
  Ret: 7.4%
  WBC: 62.3 x10_2/uL
  KIDNEY_L: 1 g
  KIDNEY_R: 1.1 g
  KIDNEY_TOTAL: 2.1 g
  LIVER: 9.9 g
  A/G: 1.3
  ALP: 1366.2 IU/L
  ALT: 58.8 IU/L
  AST: 87.6 IU/L
  BUN: 12.2 mg/dL
  CRE: 0.1 mg/dL
  Ca: 10.4 mg/dL
  Cl: 106 meq/L
  DBIL: 0 mg/dL
  GLC: 174.4 mg/dL
  IP: 9.6 mg/dL
  K: 4 meq/L
  LDH: 168 IU/L
  Na: 141 meq/L
  PL: 122.6 mg/dL
  RALB: 3 g/dL
  TBIL: 0.028 mg/dL
  TC: 72.6 mg/dL
  TG: 46 mg/dL
  TP: 5.4 g/dL
  gamma-GTP: 1 IU/L
[6]
  TERMINAL_BW: 214.8 g
  APTT: 21.8 s
  Bas: 0%
  Eos: 0.6%
  Fbg: 411.6 mg/dL
  Hb: 13.6 g/dL
  Ht: 42.2%
  Lym: 71.2%
  MCH: 20.7 pg
  MCHC: 32.4%
  MCV: 64 fL
  Mono: 2%
  Neu: 25%
  PT: 16.1 s
  Plat: 109.7 x10_4/uL
  RBC: 660.2 x10_4/ul
  Ret: 7.1%
  WBC: 71.5 x10_2/uL
  KIDNEY_L: 0.9 g
  KIDNEY_R: 0.9 g
  KIDNEY_TOTAL: 1.9 g
  LIVER: 9.6 g
  A/G: 1.2
  ALP: 1714.4 IU/L
  ALT: 52 IU/L
  AST: 84.2 IU/L
  BUN: 10.2 mg/dL
  CRE: 0.2 mg/dL
  Ca: 10.3 mg/dL
  Cl: 107.2 meq/L
  DBIL: 0 mg/dL
  GLC: 186.8 mg/dL
  IP: 8.5 mg/dL
  K: 4.2 meq/L
  LDH: 190.4 IU/L
  Na: 141.8 meq/L
  PL: 133.2 mg/dL
  RALB: 3 g/dL
  TBIL: 0.02 mg/dL
  TC: 80.4 mg/dL
  TG: 34.8 mg/dL
  TP: 5.7 g/dL
  gamma-GTP: 1.6 IU/L
[7]
  TERMINAL_BW: 217.6 g
  APTT: 23.3 s
  Bas: 0%
  Eos: 0.8%
  Fbg: 309.4 mg/dL
  Hb: 12.7 g/dL
  Ht: 39.4%
  Lym: 72.8%
  MCH: 20.3 pg
  MCHC: 32.2%
  MCV: 63 fL
  Mono: 2.6%
  Neu: 23%
  PT: 16.1 s
  Plat: 109.3 x10_4/uL
  RBC: 626.4 x10_4/ul
  Ret: 7.6%
  WBC: 76 x10_2/uL
  KIDNEY_L: 1 g
  KIDNEY_R: 1 g
  KIDNEY_TOTAL: 2 g
  LIVER: 9.5 g
  A/G: 1.3
  ALP: 1243.2 IU/L
  ALT: 42.8 IU/L
  AST: 65 IU/L
  BUN: 8.6 mg/dL
  CRE: 0.1 mg/dL
  Ca: 10.3 mg/dL
  Cl: 107.2 meq/L
  DBIL: 0 mg/dL
  GLC: 186 mg/dL
  IP: 9.1 mg/dL
  K: 4.2 meq/L
  LDH: 146.4 IU/L
  Na: 141.4 meq/L
  PL: 144.8 mg/dL
  RALB: 3 g/dL
  TBIL: 0.026 mg/dL
  TC: 81.4 mg/dL
  TG: 45.4 mg/dL
  TP: 5.4 g/dL
  gamma-GTP: 1.4 IU/L
[8]
  TERMINAL_BW: 225.6 g
  APTT: 20.4 s
  Bas: 0%
  Eos: 1%
  Fbg: 313.6 mg/dL
  Hb: 13.4 g/dL
  Ht: 41%
  Lym: 80%
  MCH: 20.5 pg
  MCHC: 32.8%
  MCV: 62.5 fL
  Mono: 2.6%
  Neu: 15.6%
  PT: 16.3 s
  Plat: 106 x10_4/uL
  RBC: 656.8 x10_4/ul
  Ret: 7.1%
  WBC: 76.9 x10_2/uL
  KIDNEY_L: 1 g
  KIDNEY_R: 1 g
  KIDNEY_TOTAL: 2 g
  LIVER: 10.5 g
  A/G: 1.2
  ALP: 1526.6 IU/L
  ALT: 50.2 IU/L
  AST: 71.4 IU/L
  BUN: 14.6 mg/dL
  CRE: 0.2 mg/dL
  Ca: 10.6 mg/dL
  Cl: 105 meq/L
  DBIL: 0 mg/dL
  GLC: 182.2 mg/dL
  IP: 8.2 mg/dL
  K: 4.2 meq/L
  LDH: 170.6 IU/L
  Na: 142.6 meq/L
  PL: 163 mg/dL
  RALB: 3.1 g/dL
  TBIL: 0.004 mg/dL
  TC: 89 mg/dL
  TG: 120.2 mg/dL
  TP: 5.6 g/dL
  gamma-GTP: 1.6 IU/L
